Test results published in PMC8002072, “A Novel Vasoactive Peptide “PG1” from Buffalo Ice-Cream Protects from Angiotensin-Evoked High Blood Pressure” (Antioxidants, 2021).
Where a SMILES comes first, the peptide text is derived from it.

Key:
Caco-2 cell monolayers [1] = test: Caco-2 monolayer integrity (zonulin-1 immunofluorescence) and cell vitality; format: cell-based, human; conditions: PG1 25 μM, 3 h; zonulin-1 expression and cell vitality (crystal violet); Figure S2
Method: To evaluate the effect of PG1 peptide on colorectal adenocarcinoma (Caco-2) cells, the cells were plated in 48-well plates at a density of 36 × 10^3 cells/well. After 24 h, the Hanks’ Balanced Salt solution containing PG1 peptide at the indicated concentrations was added to the wells. The cells were examined after 3 h through microscope analysis. Finally, cells’ viability was assessed by the use of Crystal Violet Staining Solution.
All experiments were performed in triplicate, and the relative cell viability was expressed as a percentage in comparison with the untreated control cells.
Integrity of monolayers was evaluated at the end of transport experiments fixing the PET membranes with 4% paraformaldehyde (PFA) for 15 min after a wash with PBS. Membranes were then incubated with blocking solution (0.1% Triton, 1% BSA, 0.02% sodium azide, 50 mM ammonium chloride) for 20 min at room temperature in the dark, followed by incubation with anti-zonulin 1 antibody (#402200, Invitrogen, Thermo Fisher Scientific, Waltham, MA, USA) at 2 μg mL^−1 (RT, 2 h). […] Slides were examined under a Nikon fluorescence inverted microscope (Nikon Instruments Europe, Firenze, Italy) and analyzed as described.
Figure S2. (A) Fluorescence micrograph of the Caco-2 cell monolayers. […]
Original magnification 200X. […] Results are expressed as mean (± SD), and are representative of three independent experiments. […]

Caco-2 cell monolayers [2] = test: Caco-2 cell monolayers permeation experiments; format: in vitro ADME, human
Method: (§2) The colorectal adenocarcinoma (Caco-2) cell line was purchased from ATCC (Rockville, MD, USA). Cells were cultured in DMEM high glucose (4.5 g/L) with 2 mM L-glutamine and 10% (v/v) heat-inactivated fetal bovine serum. Cells were maintained at 37 °C in a humidified 5% CO2 atmosphere. Differentiation experiments were performed in a 12-well multiwell in transwell inserts (PET membrane, 0.4 µm pore size, 0.30 cm^2 surface area), plating Caco-2 at 2.6 × 10^5 cells/cm^2 for 21 days in complete medium, changed every other day.
(§3) The integrity of the monolayers was evaluated by means of the transepithelial electrical resistance (TEER) measurement using an EVOM2 epithelial voltohmmeter (World Precision Instruments, Sarasota, FL, USA). […] For the permeation assays, only intact monolayers with TEER higher than 300 Ω × cm^2 were used. In brief, PET membranes were washed for 15–20 min at 37 °C with pre-warmed Hank’s balanced salt solution (HBSS) buffered with 25 mM HEPES and NaHCO3 (0.35 g/L) to adjust pH at 7.4, or with 10 mM methanesulfonic acid to adjust pH at 6.5. HBSS was added both to the apical (0.3 mL) and to the basolateral (0.9 mL) transwell compartments, as previously described [22].
(§4) For transport experiments, donor solution containing PG1 peptide was added to the apical compartment. […]
(§5) The apparent permeability coefficient (Papp) was calculated according to the Equation (1). The donor concentration was recalculated by subtracting the cumulative amount transported to the receiver chamber for each time interval:(1) CD(ti)=CD(ti−1)−CRti−f×CRti−1×VR/VD CD (ti) and CR (ti) (μM): donor and receiver chamber concentrations calculated at each sample occasion (i) from the donor and receiver concentrations at the previous occasion CD (ti−1) and CR (ti−1), respectively; f = 1 − VS/VR: sample replacement dilution factor; VS (cm^3): sample volume; VR (cm^3): receiver chamber volume; VD (cm^3): donor chamber volume.

[3] = Caco-2 cell monolayers permeation experiments; format: in vitro ADME, human; conditions: human; Caco-2 monolayers, HBSS, 180 min, UHPLC-MS/MS; read-out: efflux ratio (Papp,b/a/Papp,a/b)
Method: as §2, §3, §4, §5

[4] = Serum concentration of PG1 in treated mice; format: in vivo; conditions: mouse, mice treated with PG1 (10 mg/Kg daily), ACN/0.1% TFA extraction, LC-MS/MS, LOQ 8.6 pM, mean ± SEM, read-out: serum concentration of pentapeptide
Method: For the determination of serum concentration of pentapeptide in mice treated with PG1, blood samples were taken from the ventricle, performing a slow withdrawal to prevent the heart collapsing, to obtain a large quantity of high-quality blood. After collection, samples were rapidly centrifuged at 800 g to separate and collect serum. Extraction was conducted with ice-cold ACN plus 0.1% TFA (100 µL serum + 200 µL ACN). Samples were vortexed for 30 s and then centrifuged for 5 min at 10,000 rpm (Eppendorf Centrifuge model 5425). The supernatant was dried under nitrogen steam and reconstituted in 50:50 H2O/ACN. Calibration curve prepared by serial dilution of synthetic peptide solubilized in water in over the range 200–10 pM (y = 0.0167x + 0.7127, R^2 = 0.9998, LOD = 2.8 pM, LOQ = 8.6 pM).

[5] = Chemical stability in simulated enteric lumen; format: physicochemical; conditions: 5 µM peptide, 10 mM HCOONH4 pH 7.5, 37 °C, 3 h, mass spectrometry
Method: In order to determine pharmacokinetic properties of a synthetic peptide, we have evaluated its chemical stability during in vitro simulated GI digestion. In detail, we have recreated the enteric lumen by alkalinization at pH = 7.5 with 10 mM HCOONH4 buffer.
(§1) The peptide (5 µM) was incubated for 3 h and monitored by mass spectrometry experiments. On the other hand, the assessment of PG1 enzymatic stability was performed by treating the peptide with digestive enzymes. In detail, pentapeptide was incubated with pancreatin (from the porcine pancreas), chymotrypsin (from bovine pancreas) and bile salts. Digestive reactions were carried out at 37 °C for 180 min with 1:10 or 1:100 peptide/enzyme ratio, w/w. Finally, the mixture was centrifuged at 4000× g at 4 °C for 10 min, and PG1 peptide was collected at time 0 and at the end of the experiment and then analyzed by LC-MS/MS for the mass balance calculation.

[6] = Microsomal stability assay; format: in vitro ADME; conditions: human microsomes 20 mg/mL stock (5 μL in 200 µL), PG1 1 mM stock (2 μL), 100 mM phosphate buffer pH 7.4, 5 min pre-incubation, NADPH, 37 °C, 60 min, LC-MS/MS; mean ± SEM; read-out: parent compound turnover percentage
Method: 2 μL of PG1 peptide (1 mM) were incubated with 183 µL of 100 mM phosphate buffer (pH 7.4), and 5 μL of 20 mg/mL human microsomes (Thermo Fisher Scientific, Bremen, Germany). After pre-incubation in a water bath for 5 min, the mixture was added with 10 μL of the 20 mM NADPH at further incubated at 37 °C for 60 min. The reaction was stopped with ice-cold methanol, centrifuged at 10,000 rpm at room temperature for 5 min and analyzed by LC-MS/MS. Three controls were used: T0 reference was obtained stopping the microsomal reaction by addition of the organic solvent immediately after incubation with microsomes. As positive and negative controls were used testosterone and PG1 solution incubated without NADPH. The extent of metabolism is expressed as a percentage of the parent compound turnover using the following equation:(2) % Parent compound turnover = 100 − [concentration at 60 min/concentration at 0 min × 100]

[7] = test system: pancreatin (from the porcine pancreas), chymotrypsin (from bovine pancreas); test: Enzymatic stability with digestive enzymes; format: in vitro ADME; conditions: chymotrypsin and bile salts, peptide/enzyme 1:10 or 1:100 w/w, 37 °C, 180 min, LC-MS/MS
Method: as §1

Row | SMILES | Caco-2 cell monolayers integrity (Caco-2 cell monolayers [1]) | dependence of transmembrane uptake on proton gradient (Caco-2 cell monolayers [2]; Caco-2 monolayers, HBSS pH 7.4 or pH 6.5) | efflux ratio at 180 min [3] | level at time molar [4] | chemical stability [5] | metabolised at 1 h, 10 µM [6] | enzymatic stability (hydrolysis) [7] | apparent permeability coefficient (Papp) of monolayer control (Caco-2 cell monolayers [2]; Caco-2 monolayers 21 days, transwell, HBSS, LC-MS/MS (SRM), integrity/reference marker)
1 | CSCC[C@H](NC(=O)[C@@H]1CCCN1C(=O)[C@H](CCC(=O)O)NC(=O)[C@H](CCCCN)NC(=O)[C@@H](N)CCC(N)=O)C(=O)O [PG1, Gln-Lys-Glu-Pro-Met] (H-QKEPM-OH) | preserved | independent of the proton gradient | < 1 | ~0.017 nM | high peptide stability for up to 3 h | ~13.2% | not hydrolysed | 
2 | CC(C)NCC(O)COc1cccc2ccccc12 (centres unmarked) [propranolol, reference compound] |  |  |  |  |  |  |  | 8.05 ± 0.16 × 10^−5 cm/s
